Source: article PMC9890698 (BMC Biology, 2023)
“And” between values parts separate entries of the source, which are not always exact repeats. Equal entries are not always repeated.

Target: T1, Human P2Y1-R (Homo sapiens, UniProt P47900)
T1 construct: expressed in transfected cells; host or cells: HEK293T/17
Assay: β-arrestin 2 recruitment BRET1 assay (β-arrestin 2-RLuc / P2Y1-R-Venus) in HEK293T cells
Type: cell-based
Conditions: for b-arrestin 2 signaling, Ligand-modulated BRET (% of maximum MRS2179 mean value): Figure 4b, individual replicates
Source text: We assessed β-arrestin 2 recruitment to the receptor using BRET^1 assay. The assay measures the interaction between β-arrestin 2 fused to the Renilla reniformis luciferase (RLuc) energy donor and the receptor fused to fluorescent Venus energy acceptor (Fig. 3a). The recruitment of cytosolic β-arrestin 2 to the receptor at the plasma membrane in the presence of an agonist will promote a significant increase of the BRET signal compared to the basal state, reflecting the close proximity between the β-arrestin 2 energy donor and the receptor energy acceptor [22].
Human P2Y1-R (NCBI Reference Sequence: NM_002563.2) and P2Y12-R (NCBI Reference Sequence: NM_022788.3) were fused to double Myc epitope and rat AT1-R (NCBI Reference Sequence: NM_030985.4) to HA tag in N-terminus extracellular region. Alternatively, receptors were also fused to Venus tag in C-terminus intracellular region. Plasmids encoding Gαq-RLuc8, GFP2-Gγ2 and untagged Gβ1 were previously described. ADP was purchased from Sigma-Aldrich/Merck (Darmstadt, Germany). […] The Gq inhibitor (FR900359) was kindly supplied by Evi Kostenis (University of Bonn. Germany).
G protein activation and β-arrestin 2 recruitment were performed as previously described. Briefly, vectors encoding receptors, Gαq-RLuc8, GFP2-Gγ2, Gβ1, or β-arrestin 2 were transiently cotransfected into HEK293T/17 cells as indicated in the figure legends. Forty-eight hours after transfection, cells were washed and resuspended in PBS containing 0.1% (w/v) glucose at room temperature and then distributed (80 μg proteins/well) in a 96-well microplate (PerkinElmer). For G protein activation experiments (BRET^2), cells were incubated in the absence (basal BRET signal) or in the presence of ligand for 1 minute. BRET signal between RLuc8 and GFP2 was measured after addition of the luciferase substrate coelenterazine 400a (5 μM). For β-arrestin 2 recruitment (BRET^1), cells were stimulated with ligands for 5 or 15 min. BRET signal was recorded after incubation with coelenterazine h (5 μM) for 8 min. For kinetics studies, BRET signal between RLuc and Venus was recorded at 20-s intervals at basal state for the 2 first minutes and then for 5 min after ligand injection. For saturation curves (BRET^1), the expression level of Venus- or RLuc-tagged protein was determined by direct measurement of total fluorescence and luminescence respectively. Total fluorescence was first measured with an excitation filter at 485 nm and an emission filter at 520 nm. Then, the same sample was incubated for 8 minutes with 5 μM coelenterazine h and the total luminescence was measured. BRET^2 and BRET^1 readings were collected using a modified Infinite F500 (Tecan Group Ltd). The BRET^2 signal was calculated by the ratio of emission of GFP2 (510–540 nm) to RLuc8 (370–450 nm) and the BRET^1 signal by the ratio of emission of Venus (520–570 nm) to RLuc (370–480 nm). Sometimes, results are expressed as the Net BRET computed by deducting the BRET background signal (obtained in the presence of the energy donor alone) from the BRET signal (acquired from cells expressing both the energy donor and acceptor).

[1] = β-Arrestin 2 signaling, Fig. 4b, 15 min

T1 sequence (P47900 whole entry): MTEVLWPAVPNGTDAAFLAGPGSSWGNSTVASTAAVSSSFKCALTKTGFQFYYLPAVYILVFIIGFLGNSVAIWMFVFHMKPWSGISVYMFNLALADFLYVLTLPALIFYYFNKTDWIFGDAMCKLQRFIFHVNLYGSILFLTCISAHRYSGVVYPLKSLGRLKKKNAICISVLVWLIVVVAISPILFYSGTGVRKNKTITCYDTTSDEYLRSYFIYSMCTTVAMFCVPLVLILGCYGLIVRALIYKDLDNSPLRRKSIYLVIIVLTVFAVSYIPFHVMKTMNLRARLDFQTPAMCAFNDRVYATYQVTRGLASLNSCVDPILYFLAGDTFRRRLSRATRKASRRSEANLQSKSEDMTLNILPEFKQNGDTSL

## CNc1nc(I)nc2c1ncn2[C@H]1C[C@H](OP(=O)(O)O)[C@]2(COP(=O)(O)O)C[C@H]12 [MRS2500, 2-iodo-N6-methyl-(N)-methanocarba-2′-deoxyadenosine-3′,5′-bisphosphate]
[Ligand] 1.00E-04 M
  b-arrestin 2 signaling, Ligand-modulated BRET (% of maximum MRS2179 mean value): -104.002 % of maximum MRS2179 mean value and -94.5729 % of maximum MRS2179 mean value and -88.0915 % of maximum MRS2179 mean value and -87.9506 % of maximum MRS2179 mean value and -95.5776 % of maximum MRS2179 mean value
[Ligand] 1.00E-05 M
  b-arrestin 2 signaling, Ligand-modulated BRET (% of maximum MRS2179 mean value): -100.008 % of maximum MRS2179 mean value and -86.7675 % of maximum MRS2179 mean value and -90.0217 % of maximum MRS2179 mean value and -77.5434 % of maximum MRS2179 mean value and -80.2036 % of maximum MRS2179 mean value
[Ligand] 1.00E-06 M
  b-arrestin 2 signaling, Ligand-modulated BRET (% of maximum MRS2179 mean value): -95.5169 % of maximum MRS2179 mean value and -78.4136 % of maximum MRS2179 mean value and -91.3759 % of maximum MRS2179 mean value and -80.0813 % of maximum MRS2179 mean value and -75.5319 % of maximum MRS2179 mean value
[Ligand] 1.00E-07 M
  b-arrestin 2 signaling, Ligand-modulated BRET (% of maximum MRS2179 mean value): -75.2707 % of maximum MRS2179 mean value and -41.8369 % of maximum MRS2179 mean value and -76.2614 % of maximum MRS2179 mean value and -66.0129 % of maximum MRS2179 mean value and -61.7221 % of maximum MRS2179 mean value
[Ligand] 1.00E-08 M
  b-arrestin 2 signaling, Ligand-modulated BRET (% of maximum MRS2179 mean value): -7.396 % of maximum MRS2179 mean value and -28.7379 % of maximum MRS2179 mean value and -20.7409 % of maximum MRS2179 mean value and -45.6895 % of maximum MRS2179 mean value and -5.348 % of maximum MRS2179 mean value
[Ligand] 1.00E-09 M
  b-arrestin 2 signaling, Ligand-modulated BRET (% of maximum MRS2179 mean value): -12.4711 % of maximum MRS2179 mean value and -18.0888 % of maximum MRS2179 mean value and -11.5273 % of maximum MRS2179 mean value and -5.043 % of maximum MRS2179 mean value and 9.479 % of maximum MRS2179 mean value
[Ligand] 1.00E-10 M
  b-arrestin 2 signaling, Ligand-modulated BRET (% of maximum MRS2179 mean value): -23.8118 % of maximum MRS2179 mean value and -10.0375 % of maximum MRS2179 mean value and -6.745 % of maximum MRS2179 mean value and -2.51 % of maximum MRS2179 mean value and -4.926 % of maximum MRS2179 mean value
HEK293T cells, high P2Y1-R expression, result in words
  Effect on β-arrestin 2 recruitment / BRET signal between P2Y1-R-Venus and β-arrestin 2-RLuc: behaved as inverse agonists
Compared to MRS2179, from potencies of Table 1
  Signaling bias (β-arrestin 2 versus Gαq protein signaling): biased inverse agonist
[1]
  EC50: 0.0475 µM
  pEC50 ± s.e.m.: 7.323 ± 0.1193
